In patent US20250313549A1, “HERBICIDAL DERIVATIVES” (SYNGENTA CROP PROTECTION AG, priority 2021, published 2025):

Experiments:
Type in all cases: in vivo
[1] = test system: Ipomoea hederacea (IPOHE); assay: Pre-emergence test, herbicidal damage; settings: 1000 g/ha, evaluated after 13 days
Zea mays (ZEAMX) [2] = assay: Pre-emergence test, herbicidal damage; settings: 1000 g/ha, evaluated after 13 days
[3] = test system: Echinochloa crus-galli (ECHCG); assay: Pre-emergence test, herbicidal damage; settings: 1000 g/ha, evaluated after 13 days
[4] = test system: Amaranthus retoflexus (AMARE); assay: Pre-emergence test, herbicidal damage; settings: 1000 g/ha, evaluated after 13 days
Setaria faberi (SETFA) [5] = assay: Pre-emergence test, herbicidal damage; settings: 1000 g/ha, evaluated after 13 days
Zea mays (ZEAMX) [6] = assay: Post-emergence test, herbicidal damage; settings: sprayed after 8 days cultivation, 1000 g/ha, evaluated after 13 days
Description: (§1) Seeds of a variety of test species are sown in standard soil in pots (Amaranthus retoflexus (AMARE), Echinochloa crus-galli (ECHCG), Amaranthus palmeri (AMAPA), Setaria faberi (SETFA), Zea mays (ZEAMX), Ipomoea hederacea (IPOHE)). After 8 days cultivation under controlled conditions in a glasshouse (at 24° C./16° C., day/night; 14 hours light; 65% humidity), the plants are sprayed with an aqueous spray solution derived from the formulation of the technical active ingredient in acetone/water (50:50) solution containing 0.5% Tween 20 (polyoxyethylene sorbitan monolaurate, CAS RN 9005-64-5). Compounds are applied at 1000 g/ha unless otherwise stated. The test plants are then grown in a glasshouse under controlled conditions in a glasshouse (at 24° C./16° C., day/night; 14 hours light; 65% humidity) and watered twice daily. After 13 days the test is evaluated for the percentage damage caused to the plant. The biological activities are shown in the following table on a five-point scale (5=81-100%; 4=61-80%; 3=41-60%; 2=21-40%; 1=10-20%; 0=0%; -=not tested).

[7] = test system: Ipomoea hederacea (IPOHE); assay: Post-emergence test, herbicidal damage; settings: sprayed after 8 days cultivation, 1000 g/ha, evaluated after 13 days
Description: as §1

[8] = test system: Amaranthus palmeri (AMAPA); assay: Post-emergence test, herbicidal damage; settings: sprayed after 8 days cultivation, 1000 g/ha, evaluated after 13 days
Description: as §1

Setaria faberi (SETFA) [9] = assay: Post-emergence test, herbicidal damage; settings: sprayed after 8 days cultivation, 1000 g/ha, evaluated after 13 days
Description: as §1

[10] = test system: Amaranthus retoflexus (AMARE); assay: Post-emergence test, herbicidal damage; settings: sprayed after 8 days cultivation, 1000 g/ha, evaluated after 13 days
Description: as §1

[11] = test system: Echinochloa crus-galli (ECHCG); assay: Post-emergence test, herbicidal damage; settings: sprayed after 8 days cultivation, 1000 g/ha, evaluated after 13 days
Description: as §1

[12] = test system: Amaranthus palmeri (AMAPA); assay: Pre-emergence test, herbicidal damage; settings: 1000 g/ha, evaluated after 13 days

Structure (SMILES) | percentage damage caused to the plant, IPOHE [1] | percentage damage caused to the plant, ZEAMX (Zea mays (ZEAMX) [2]) | percentage damage caused to the plant, ECHCG [3] | percentage damage caused to the plant, AMARE [4] | percentage damage caused to the plant, SETFA (Setaria faberi (SETFA) [5]) | percentage damage caused to the plant, ZEAMX (Zea mays (ZEAMX) [6]) | percentage damage caused to the plant, IPOHE [7] | percentage damage caused to the plant, AMAPA [8] | percentage damage caused to the plant, SETFA (Setaria faberi (SETFA) [9]) | percentage damage caused to the plant, AMARE [10] | percentage damage caused to the plant, ECHCG [11] | percentage damage caused to the plant, AMAPA [12]
CCOC(=O)c1nn(-c2ccc(F)nc2)c2cccc(Br)c2c1=O [Compound 23, ethyl 5-bromo-1-(6-fluoro-3-pyridyl)-4-oxo-cinnoline-3-carboxylate] | 1 (1=10-20%) | 0 (0=0%) | 5 (5=81-100%) | 0 (0=0%) | 4 (4=61-80%) | 1 (1=10-20%) | 0 (0=0%) | 0 (0=0%) | 4 (4=61-80%) | 0 (0=0%) | 4 (4=61-80%) | 0 (0=0%)
N#Cc1cccc2c1c(=O)c(C(=O)O)nn2-c1cncnc1 [Compound 1, 5-cyano-4-oxo-1-pyrimidin-5-yl-cinnoline-3-carboxylic acid] | 0 (0=0%) | 0 (0=0%) | 2 (2=21-40%) | 0 (0=0%) | 0 (0=0%) | 1 (1=10-20%) | 1 (1=10-20%) | 1 (1=10-20%) | 1 (1=10-20%) | 2 (2=21-40%) | 2 (2=21-40%) | 0 (0=0%)
CCOC(=O)c1nn(-c2ccc(OC(F)F)nc2)c2cccc(Br)c2c1=O [Compound 36, ethyl 5-bromo-1-[6-(difluoromethoxy)-3-pyridyl]-4-oxo-cinnoline-3-carboxylate] | 0 (0=0%) | 1 (1=10-20%) | 0 (0=0%) | 0 (0=0%) | 1 (1=10-20%) | 0 (0=0%) | 1 (1=10-20%) | 0 (0=0%) | 1 (1=10-20%) | 2 (2=21-40%) | 0 (0=0%) | 1 (1=10-20%)
CCOC(=O)c1nn(-c2ccnc(OC(F)F)c2)c2cccc(/C(C)=N\OC)c2c1=O [Compound 41, ethyl 1-[2-(difluoromethoxy)-4-pyridyl]-5-[(Z)—N-methoxy-C-methyl-carbonimidoyl]-4-oxo-cinnoline-3-carboxylate] | 0 (0=0%) | 1 (1=10-20%) | 4 (4=61-80%) | 0 (0=0%) | – | – | 1 (1=10-20%) | 1 (1=10-20%) | 1 (1=10-20%) | 1 (1=10-20%) | 2 (2=21-40%) | 0 (0=0%)
CCOC(=O)c1nn(-c2cc(OC)ncn2)c2cccc(Br)c2c1=O [Compound 32, ethyl 5-bromo-1-(6-methoxypyrimidin-4-yl)-4-oxo-cinnoline-3-carboxylate] | 0 (0=0%) | 0 (0=0%) | 1 (1=10-20%) | 0 (0=0%) | 1 (1=10-20%) | 0 (0=0%) | 1 (1=10-20%) | 1 (1=10-20%) | 0 (0=0%) | 1 (1=10-20%) | 0 (0=0%) | 0 (0=0%)
CCOC(=O)c1nn(-c2ccnc(Br)c2)c2cccc(Br)c2c1=O [Compound 10, ethyl 5-bromo-1-(2-bromo-4-pyridyl)-4-oxo-cinnoline-3-carboxylate] | 0 (0=0%) | 0 (0=0%) | – | 1 (1=10-20%) | 0 (0=0%) | 0 (0=0%) | 0 (0=0%) | 3 (3=41-60%) | 0 (0=0%) | 3 (3=41-60%) | 1 (1=10-20%) | 0 (0=0%)
CCOC(=O)c1nn(-c2ncc(Cl)cn2)c2cccc(Br)c2c1=O [Compound 34, ethyl 5-bromo-1-(5-chloropyrimidin-2-yl)-4-oxo-cinnoline-3-carboxylate] | 0 (0=0%) | 0 (0=0%) | 0 (0=0%) | 0 (0=0%) | 1 (1=10-20%) | 1 (1=10-20%) | 3 (3=41-60%) | 1 (1=10-20%) | 2 (2=21-40%) | 3 (3=41-60%) | 0 (0=0%) | 1 (1=10-20%)
